Laboratory results from patent US12509444B2, “Compounds and methods for CD73 modulation and indications therefor” (Plexxikon Inc., priority 2019, dated 2025).

How the values were obtained:
[1] = target: T1, Human CD73 (amino acid residues 27-549) (Homo sapiens, UniProt P21589); test: CD73 enzymatic assay (luciferase-based indirect assay, CellTiter-Glo); type: biochemical; conditions: 0.4 nM CD73, 150 μM AMP, 1 hour at room temperature
T1 construct: Human CD73 (amino acid residues 27-549); His tag (N); made in house; host or cells: E. coli
T1 sequence (P21589 27-549): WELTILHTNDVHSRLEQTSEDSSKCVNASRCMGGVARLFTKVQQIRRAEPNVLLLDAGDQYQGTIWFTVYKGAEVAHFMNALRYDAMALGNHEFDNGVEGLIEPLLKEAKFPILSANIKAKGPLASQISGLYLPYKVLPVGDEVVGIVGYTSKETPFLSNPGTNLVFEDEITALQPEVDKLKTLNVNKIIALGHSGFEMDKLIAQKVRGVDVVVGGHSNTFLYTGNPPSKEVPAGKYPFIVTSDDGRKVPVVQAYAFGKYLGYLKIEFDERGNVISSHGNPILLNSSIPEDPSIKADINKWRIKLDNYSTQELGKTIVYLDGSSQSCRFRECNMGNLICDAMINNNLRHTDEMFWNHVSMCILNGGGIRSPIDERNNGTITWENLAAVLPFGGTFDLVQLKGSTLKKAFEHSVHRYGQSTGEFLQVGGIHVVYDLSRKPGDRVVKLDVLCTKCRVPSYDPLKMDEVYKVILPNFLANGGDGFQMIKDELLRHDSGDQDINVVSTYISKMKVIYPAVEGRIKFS
Procedure, shortened: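 His-tagged human CD73 (27-549) from E. coli, 0.4 nM, with 150 μM AMP in 50 mM HEPES pH 7.4, 0.01% Tween 20; 1 h at room temperature. AMP remaining read by CellTiter-Glo 2.0 luminescence with 1 μM final ATP after 30 min. IC50 from nonlinear regression of % inhibition.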

human CD73 = target: T2, human CD73 (Homo sapiens, UniProt P21589); test: Inhibitor activity against CD73 in cell based assay (CD73 expressing CHO-K1 cells); conditions: CHO-K1 cells expressing human CD73, 150 μM AMP, 4 hours of incubation; read-out: CHO-K1 CELL VARIANT: CD73 IC50
T2 construct: expressed in transfected cells
T2 sequence (P21589 27-549): T1 sequence (P21589 27-549)
Procedure, shortened: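 Stably transfected CHO-K1 cells expressing human CD73 (1×10^4/well) incubated 4 h with compound (8-point 1:3 titration, top 10 μM final, 0.2% DMSO) and 150 μM AMP. Residual AMP in supernatant measured by CellTiter-Glo luminescence with 1 μM ATP after 30 min at room temperature; IC50 by nonlinear regression of percent inhibition vs high/low controls.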

Row | IC50 [1] [µM] | IC50 (human CD73) [µM] | SMILES
1 | 0.001 to 10 | 0.001 to 10 | Cc1nonc1C(=O)N1CCC(NC(=O)O[C@@H]2CCN(c3cn[nH]c(=O)c3Cl)C2)CC1 [P-0505, (R)-1-(5-chloro-6-oxo-1,6-dihydropyridazin-4-yl)pyrrolidin-3-yl (1-(4-methyl-1,2,5-oxadiazole-3-carbonyl)piperidin-4-yl)carbamate]
2 | 0.001 to 10 | 0.001 to 10 | O=C(NC1CCCC(F)(F)C1)O[C@H]1CN(c2cn[nH]c(=O)c2Cl)C[C@@H]1F (stereo partly drawn) [P-0506, (3S,4S)-1-(5-chloro-6-oxo-1,6-dihydropyridazin-4-yl)-4-fluoropyrrolidin-3-yl (3,3-difluorocyclohexyl)carbamate]
3 | 0.001 to 10 | 0.001 to 10 | O=C(N[C@@H]1CCC[C@H]1C(F)F)O[C@@H]1CCN(c2cn[nH]c(=O)c2Cl)C1 [P-0509, (R)-1-(5-chloro-6-oxo-1,6-dihydropyridazin-4-yl)pyrrolidin-3-yl ((1R,2R)-2-(difluoromethyl)cyclopentyl) carbamate]
4 | 0.001 to 10 | 0.001 to 10 | CC(F)(F)[C@@H]1CCC[C@H]1NC(=O)O[C@@H]1CCN(c2cn[nH]c(=O)c2Cl)C1 [P-0510, (R)-1-(5-chloro-6-oxo-1,6-dihydropyridazin-4-yl)pyrrolidin-3-yl ((1R,2R)-2-(1,1-difluoroethyl)cyclopentyl) carbamate]
5 | 0.001 to 10 | 0.001 to 10 | O=C(N[C@@H]1CCCC(F)(F)C1)O[C@@H]1CCN(c2cn[nH]c(=O)c2Cl)C1 [P-0512, (R)-1-(5-chloro-6-oxo-1,6-dihydropyridazin-4-yl)pyrrolidin-3-yl ((R)-3,3-difluorocyclohexyl)carbamate]
6 | 0.001 to 10 | 0.001 to 10 | N#CC1(NC(=O)O[C@@H]2CCN(c3cn[nH]c(=O)c3Cl)C2)CCC1 [P-0515, (R)-1-(5-chloro-6-oxo-1,6-dihydropyridazin-4-yl)pyrrolidin-3-yl (1-cyanocyclobutyl)carbamate]
7 | 0.001 to 10 | 0.001 to 10 | O=C(NC1CCC1)O[C@@H]1CCN(c2cn[nH]c(=O)c2Cl)C1 [P-0516, (R)-1-(5-chloro-6-oxo-1,6-dihydropyridazin-4-yl)pyrrolidin-3-yl cyclobutylcarbamate]
8 | 0.001 to 10 | 0.001 to 10 | O=C(NC1(C(F)(F)F)CCC1)O[C@@H]1CCN(c2cn[nH]c(=O)c2Cl)C1 [P-0518, (R)-1-(5-chloro-6-oxo-1,6-dihydropyridazin-4-yl)pyrrolidin-3-yl (1-(trifluoromethyl)cyclobutyl) carbamate]

The next lines start with the molecule.

Row | SMILES | IC50 [1] [µM] | IC50 (human CD73) [µM]
9 | O=C(NC1CCCC(F)(F)C1)O[C@H]1CN(c2cnn(CCO)c(=O)c2Cl)C[C@@H]1F (stereo partly drawn) [P-0507, (3S,4S)-1-(5-chloro-1-(2-hydroxyethyl)-6-oxo-1,6-dihydropyridazin-4-yl)-4-fluoropyrrolidin-3-yl (3,3-difluorocyclohexyl)carbamate] | 0.001 to 10 | 0.001 to 10
10 | O=C(N[C@@H]1CCC[C@H]1CO)O[C@@H]1CCN(c2cn[nH]c(=O)c2Cl)C1 [P-0508, (R)-1-(5-chloro-6-oxo-1,6-dihydropyridazin-4-yl)pyrrolidin-3-yl ((1R,2R)-2-(hydroxymethyl)cyclopentyl) carbamate] | 0.001 to 10 | 0.001 to 10
11 | O=C(N[C@H]1CCCC(F)(F)C1)O[C@@H]1CCN(c2cn[nH]c(=O)c2Cl)C1 [P-0511, (R)-1-(5-chloro-6-oxo-1,6-dihydropyridazin-4-yl)pyrrolidin-3-yl ((S)-3,3-difluorocyclohexyl)carbamate] | 0.001 to 10 | 0.001 to 10
12 | O=C(N[C@@H]1CCCC(F)(F)C1)O[C@@H]1CCN(c2cnn(CCO)c(=O)c2Cl)C1 [P-0513, (R)-1-(5-chloro-1-(2-hydroxyethyl)-6-oxo-1,6-dihydropyridazin-4-yl)pyrrolidin-3-yl ((R)-3,3-difluorocyclohexyl)carbamate] | 0.001 to 10 | 0.001 to 10
13 | O=C(N[C@H]1CCCC(F)(F)C1)O[C@@H]1CCN(c2cnn(CCO)c(=O)c2Cl)C1 [P-0514, (R)-1-(5-chloro-1-(2-hydroxyethyl)-6-oxo-1,6-dihydropyridazin-4-yl)pyrrolidin-3-yl ((S)-3,3-difluorocyclohexyl)carbamate] | 0.001 to 10 | 0.001 to 10
14 | CC1(C)C(NC(=O)O[C@@H]2CCN(c3cn[nH]c(=O)c3Cl)C2)C1(C)C [P-0517, (R)-1-(5-chloro-6-oxo-1,6-dihydropyridazin-4-yl)pyrrolidin-3-yl (2,2,3,3-tetramethylcyclopropyl) carbamate] | 0.001 to 10 | 0.001 to 10
